Values quoted from earlier work in patent US20040235766A1 (priority 2001, published 2004).

Target: DnaX protein (Escherichia coli, UniProt P06710)
Conditions: read-out: dissociation constant

Chain of DnaX protein (P06710 whole entry): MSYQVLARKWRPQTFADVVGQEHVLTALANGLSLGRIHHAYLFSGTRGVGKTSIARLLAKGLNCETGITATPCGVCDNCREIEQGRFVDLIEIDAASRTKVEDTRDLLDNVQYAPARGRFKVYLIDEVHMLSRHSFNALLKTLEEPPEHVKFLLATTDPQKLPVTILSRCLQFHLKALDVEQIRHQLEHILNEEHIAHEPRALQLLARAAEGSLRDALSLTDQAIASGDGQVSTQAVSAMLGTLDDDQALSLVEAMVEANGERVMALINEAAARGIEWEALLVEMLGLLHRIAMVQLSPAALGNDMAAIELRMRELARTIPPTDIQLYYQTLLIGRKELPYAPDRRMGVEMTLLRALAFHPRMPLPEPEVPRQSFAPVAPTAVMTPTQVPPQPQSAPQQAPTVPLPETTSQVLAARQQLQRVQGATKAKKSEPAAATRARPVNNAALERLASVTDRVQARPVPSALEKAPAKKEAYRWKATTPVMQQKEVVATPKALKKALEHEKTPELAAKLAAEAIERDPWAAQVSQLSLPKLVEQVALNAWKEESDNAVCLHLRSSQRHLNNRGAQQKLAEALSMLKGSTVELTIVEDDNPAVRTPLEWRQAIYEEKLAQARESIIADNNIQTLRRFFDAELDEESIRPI

Nc1ncnc2c1ncn2[C@@H]1O[C@H](COP(=O)(O)OP(=O)(O)OP(=O)(O)O)[C@@H](O)[C@H]1O [ATP]
Kd: ~2000 nM
